The test deals with T1, human oxytocin receptor (Homo sapiens, UniProt P30559).
T1 construct: host or cells: CHO cells (pcDNA3.1 vector)
T1 sequence (P30559 1-389): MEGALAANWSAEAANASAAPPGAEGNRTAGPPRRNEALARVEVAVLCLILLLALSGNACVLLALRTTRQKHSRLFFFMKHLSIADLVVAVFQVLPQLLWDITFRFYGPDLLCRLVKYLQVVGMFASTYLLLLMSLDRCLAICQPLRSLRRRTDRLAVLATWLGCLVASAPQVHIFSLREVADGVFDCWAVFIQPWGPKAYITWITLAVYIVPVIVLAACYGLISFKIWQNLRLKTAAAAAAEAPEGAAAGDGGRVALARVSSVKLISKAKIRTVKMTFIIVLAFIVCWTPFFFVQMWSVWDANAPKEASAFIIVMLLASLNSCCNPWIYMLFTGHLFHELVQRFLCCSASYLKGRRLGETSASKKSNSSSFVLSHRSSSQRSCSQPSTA
In words: Oxytocin binding in Chinese Hamster Ovary cell membranes expressing human oxytocin receptors. The note with it: 100 nM, CHO cell membranes, [3H]oxytocin, values without parentheses, read-out: OT % inhibition @ 100% nM.
Turning to `COc1ccccc1-c1ccc(C(=O)N2Cc3ccc(C(=O)NCCC4CCCN4C)n3Cc3ccccc32)cc1C` (stereo not drawn) [Example 162, 10-[(2′-Methoxy-2-methyl[1,1′-biphenyl]-4-yl)carbonyl]-N-[2-(1-methyl-2-pyrrolidinyl)ethyl]-10,11-dihydro-5H-pyrrolo[2,1-c][1,4]benzodiazepine-3-carboxamide], the inhibition at 0.1 µM was 71%.

Take `Cc1ccccc1-c1ccc(C(=O)N2Cc3ccc(C(=O)N4CCN(CCN(C)C)CC4)n3Cc3ccccc32)cc1C` [Example 198, {4-[2-(Dimethylamino)ethyl]-1-piperazinyl}{10-[(2,2′-dimethyl[1,1′-biphenyl]-4-yl)carbonyl]-10,11-dihydro-5H-pyrrolo[2,1-c][1,4]benzodiazepin-3-yl}methanone]: the inhibition at 0.1 µM was 94%.

Consider `COc1cccc(-c2cc(OC)c(C(=O)N3Cc4ccc(C(=O)N(C)C5CCN(C)C5)n4Cc4ccccc43)cc2Cl)c1` (stereo not drawn) [Example 191, 10-[(6-Chloro-3,3′-dimethoxy[1,1′-biphenyl]-4-yl)carbonyl]-N-methyl-N-(1-methyl-3-pyrrolidinyl)-10,11-dihydro-5H-pyrrolo[2,1-c][1,4]benzodiazepine-3-carboxamide], for which the inhibition at 0.1 µM came out at 100%.

`COc1cc(C(=O)N2Cc3ccc(C(=O)N(C)C4CCN(C)CC4)n3Cc3ccccc32)ccc1-c1ccccc1C` [Example 179, 10-[(2-Methoxy-2′-methyl[1,1′-biphenyl]-4-yl)carbonyl]-N-methyl-N-(1-methyl-4-piperidinyl)-10,11-dihydro-5H-pyrrolo[2,1-c][1,4]benzodiazepine-3-carboxamide]: the inhibition at 0.1 µM is 93%.

Take `COc1cccc(-c2ccc(C(=O)N3Cc4ccc(C(=O)N5CCN(CCN6CCOCC6)CC5)n4Cc4ccccc43)cc2C)c1` [Example 208, {10-[(3′-Methoxy-2-methyl[1,1′-biphenyl]-4-yl)carbonyl]-10,11-dihydro-5H-pyrrolo[2,1-c][1,4]benzodiazepin-3-yl}{4-[2-(4-morpholinyl)ethyl]-1-piperazinyl}methanone]: the inhibition at 0.1 µM worked out at 81%.

With `C=CCN1CCN(C(=O)c2ccc3n2Cc2ccccc2N(C(=O)c2ccc(-c4cccc(OC)c4)c(C)c2)C3)CC1` [Example 223, (4-Allyl-1-piperazinyl){10-[(3′-methoxy-2-methyl[1,1′-biphenyl]-4-yl)carbonyl]-10,11-dihydro-5H-pyrrolo[2,1-c][1,4]benzodiazepin-3-yl}methanone], the inhibition at 0.1 µM came out at 71%.

For the compound `COc1ccccc1-c1ccc(C(=O)N2Cc3ccc(C(=O)N(C)C4CCN(C)C4)n3Cc3ccccc32)cc1OC` (stereo not drawn) [Example 193, 10-[(2,2′-Dimethoxy[1,1′-biphenyl]-4-yl)carbonyl]-N-methyl-N-(1-methyl-3-pyrrolidinyl)-10,11-dihydro-5H-pyrrolo[2,1-c][1,4]benzodiazepine-3-carboxamide], the inhibition at 0.1 µM is 96%.

Regarding `COc1ccccc1-c1ccc(C(=O)N2Cc3ccc(C(=O)N4CCN(CCN5CCOCC5)CC4)n3Cc3ccccc32)cc1OC` [Example 214, {10-[(2,2′-Dimethoxy[1,1′-biphenyl]-4-yl)carbonyl]-10,11-dihydro-5H-pyrrolo[2,1-c][1,4]benzodiazepin-3-yl}{4-[2-(4-morpholinyl)ethyl]-1-piperazinyl}methanone], the inhibition at 0.1 µM came out at 64%.

As for `Cc1ccccc1-c1ccc(C(=O)N2Cc3ccc(C(=O)NCCC4CCCN4C)n3Cc3ccccc32)cc1C` (stereo not drawn) [Example 163, 10-[(2,2′-Dimethyl[1,1′-biphenyl]-4-yl)carbonyl]-N-[2-(1-methyl-2-pyrrolidinyl)ethyl]-10,11-dihydro-5H-pyrrolo[2,1-c][1,4]benzodiazepine-3-carboxamide], the inhibition at 0.1 µM is 82%.

Turning to `C=CCN1CCN(C(=O)c2ccc3n2Cc2ccccc2N(C(=O)c2cc(Cl)c(-c4cccc(OC)c4)cc2OC)C3)CC1` [Example 226, (4-Allyl-1-piperazinyl){10-[(6-chloro-3,3′-dimethoxy[1,1′-biphenyl]-4-yl)carbonyl]-10,11-dihydro-5H-pyrrolo[2,1-c][1,4]benzodiazepin-3-yl}methanone], the inhibition at 0.1 µM is 71%.

As to `COc1cc2c(cc1OC)N(C(=O)c1ccc(-c3ccccc3C(F)(F)F)c(C)c1)Cc1cccn1C2` [Example 12, 7,8-Dimethoxy-[10,11-dihydro-5H-pyrrolo[2,1-c][1,4]benzodiazepin-10-yl][2-methyl-2′-(trifluoromethyl)[1,1′-biphenyl]-4-yl]methanone], the inhibition at 0.1 µM came out at 21%.

With `COc1cc(-c2ccccc2C)c(Cl)cc1C(=O)N1Cc2ccc(C(=O)N3CCN(CCN4CCOCC4)CC3)n2Cc2ccccc21` [Example 217, {10-[(6-Chloro-3-methoxy-2′-methyl[1,1′-biphenyl]-4-yl)carbonyl]-10,11-dihydro-5H -pyrrolo[2,1-c][1,4]benzodiazepin-3-yl}{4-[2-(4-morpholinyl)ethyl]-1-piperazinyl}methanone], the inhibition at 0.1 µM was 98%.

Turning to `COc1cccc(-c2cc(OC)c(C(=O)N3Cc4ccc(C(=O)N5CCN(C(C)C)CC5)n4Cc4ccccc43)cc2Cl)c1` [Example 239, {10-[(6-Chloro-3,3′-dimethoxy[1,1′-biphenyl]-4-yl)carbonyl]-10,11-dihydro-5H-pyrrolo[2,1-c][1,4]benzodiazepin-3-yl}(4-isopropyl-1-piperazinyl)methanone], the inhibition at 0.1 µM turned out to be 61%.

For `Cc1ccccc1-c1ccc(C(=O)N2Cc3ccc(C(=O)N(C)C4CCN(C)CC4)n3Cc3ccccc32)cc1` [Example 178, N-Methyl-10-[(2′-methyl[1,1′-biphenyl]-4-yl)carbonyl]-N-(1-methyl-4-piperidinyl)-10,11-dihydro-5H-pyrrolo[2,1-c][1,4]benzodiazepine-3-carboxamide], the inhibition at 0.1 µM is 93%.

For `C=CCN1CCN(C(=O)c2ccc3n2Cc2ccccc2N(C(=O)c2ccc(-c4ccccc4OC)c(OC)c2)C3)CC1` [Example 227, (4-Allyl-1-piperazinyl){10-[(2,2′-dimethoxy[1,1′-biphenyl]-4-yl)carbonyl]-10,11-dihydro-5H -pyrrolo[2,1-c][1,4]benzodiazepin-3-yl}methanone], the inhibition at 0.1 µM was 69%.

With `C=CCN1CCN(C(=O)c2ccc3n2Cc2ccccc2N(C(=O)c2ccc(-c4ccccc4C)cc2)C3)CC1` [Example 224, (4-Allyl-1-piperazinyl){10-[(2′-methyl[1,1′-biphenyl]-4-yl)carbonyl]-10,11-dihydro-5H -pyrrolo[2,1-c][1,4]benzodiazepin-3-yl}methanone], the inhibition at 0.1 µM was -3%.

As for `COc1ccccc1-c1ccc(C(=O)N2Cc3ccc(C(=O)O)n3Cc3ccccc32)cc1C` [Example 9, 10-[(2′-Methoxy-2-methyl-[1,1′-biphenyl]-4-yl)carbonyl]-10,11-dihydro-5H-pyrrolo[2,1-c][1,4]benzodiazepine-3-carboxylic acid], the inhibition at 0.1 µM stood at 32%.

Take `COc1cc(-c2ccccc2C)c(Cl)cc1C(=O)N1Cc2ccc(C(=O)N(C)C3CCN(C)C3)n2Cc2ccccc21` (stereo not drawn) [Example 190, 10-[(6-Chloro-3-methoxy-2′-methyl[1,1′-biphenyl]-4-yl)carbonyl]-N-methyl-N-(1-methyl-3-pyrrolidinyl)-10,11-dihydro-5H-pyrrolo[2,1-c][1,4]benzodiazepine-3-carboxamide]: the inhibition at 0.1 µM was 99%.
